Results published in patent US20170202932A1, “METHODS FOR INHIBITING NEURON APOPTOSIS AND NECROSIS” (NEWSOUTH INNOVATIONS PTY LIMITED, priority 2012, published 2017).

Target: T1, recombinant mouse TRPC3b channels (Mus musculus, UniProt Q9QZC1, R524G)
T1 construct: Full length mouse TRPC3 transcripts were obtained by PCR; expressed in transfected cells; host or cells: HEK293 cells, stably transfected (pIRES-DsRed2 vector)
T1 sequence (Q9QZC1 75-910 R524G limits assumed): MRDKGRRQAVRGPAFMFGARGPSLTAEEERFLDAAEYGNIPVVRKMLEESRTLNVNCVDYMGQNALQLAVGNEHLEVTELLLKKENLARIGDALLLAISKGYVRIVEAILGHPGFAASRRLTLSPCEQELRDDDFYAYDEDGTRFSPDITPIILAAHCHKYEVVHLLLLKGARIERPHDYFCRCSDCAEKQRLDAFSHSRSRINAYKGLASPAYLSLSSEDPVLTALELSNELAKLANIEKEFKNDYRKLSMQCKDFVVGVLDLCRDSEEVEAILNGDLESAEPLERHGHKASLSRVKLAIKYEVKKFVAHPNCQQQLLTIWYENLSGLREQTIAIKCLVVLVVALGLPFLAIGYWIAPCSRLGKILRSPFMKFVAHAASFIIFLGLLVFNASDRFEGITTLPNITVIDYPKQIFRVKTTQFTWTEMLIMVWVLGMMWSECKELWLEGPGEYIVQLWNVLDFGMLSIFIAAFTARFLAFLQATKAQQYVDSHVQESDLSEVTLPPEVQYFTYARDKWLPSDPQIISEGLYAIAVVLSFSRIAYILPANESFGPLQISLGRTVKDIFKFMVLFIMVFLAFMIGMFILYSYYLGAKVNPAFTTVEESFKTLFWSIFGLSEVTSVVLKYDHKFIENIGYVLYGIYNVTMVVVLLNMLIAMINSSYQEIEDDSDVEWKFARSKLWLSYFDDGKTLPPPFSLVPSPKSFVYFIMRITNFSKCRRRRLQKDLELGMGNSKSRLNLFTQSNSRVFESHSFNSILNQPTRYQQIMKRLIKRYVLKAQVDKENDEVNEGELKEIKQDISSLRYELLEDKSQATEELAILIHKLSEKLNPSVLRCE
Test: Whole-cell patch clamp of CCh-activated current, HEK293 cells expressing TRPC3b
Format: cell-based
Conditions: TRPC3b+CCh (100 μM)+genistein 200 μM pre-incubation; Vh=−50 mV; n=6; CCh alone −235.0±28.7 pA
Procedure: For whole cell patch clamp recordings, HEK293 cells stably expressing recombinant TRPC3 ion channels were grown to 85-95% confluence on a coverslip coated with poly-D-lysine and collagen (both from Sigma-Aldrich, U.S.A.). Recording pipettes were made from borosilicate glass (GC120TF-10, Harvard Apparatus, U.K.). The pipette resistance was at 3-6 MΩ (PC-10, Narishige, Japan). The internal solution had the composition: 130 mM CsCl, 2 mM MgCl2, 10 mM EGTA, 0.3 mM ATP, 0.03 mM GTP, pH at 7.3 adjusted with CsOH. Cells on the coverslip were placed in a microchamber on an inverted microscope (Leica DMIL, Germany) and superfused with HEPES-buffered physiological salt solution (HPSS) containing 120 mM NaCl, 5.4 mM KCl, 2 mM CaCl2, 1.13 mM MgCl2, 10 mM glucose, 20 mM HEPES (pH 7.4) at room temperature.
Whole cell patch clamp recordings were made following a gigaseal, using an Axopatch 200 patch clamp amplifier (Molecular Devices, U.S.A.) controlled by software (pClamp 10.2, Molecular Devices, U.S.A.). Cell capacitance was cancelled and series resistance was compensated by ˜90%. […] Carbachol (used to activate TRPC3 channels via the endogenously expressed M3 AChR) was purchased from Sigma-Aldrich (U.S.A.). DHPG (—(S)-2-amino-2-(3,5-dihydroxyphenyl)acetic acid), a group I mGluR agonist (Schoepp et al. 1994), was purchased from Tocris Bioscience (U.K.). […]

mean peak CCh-activated whole-cell inward current: −24.8±9.7 pA
Compound: O=c1c(-c2ccc(O)cc2)coc2cc(O)cc(O)c12 [genistein, 4′, 5,7-trihydroxyisoflavone]
